Our source for the T/C values is PubChem BioAssay AID180 (DTP/NCI, 2004).

The T/C is the ratio of treated to control.

This assay deals with BDF1 mice, Adenocarcinoma 755 s.c., tumor weight T/C. Description: NCI In Vivo Anticancer Drug Screen. Data for tumor model Adenocarcinoma 755 (subcutaneous) in B6D2F1 (BDF1) mice. Particulars: endpoint: mean tumor weight, schedule: Q01DX011 (ip), higher = larger tumour. In a few lines: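 Compound activity was tested in mice carrying transplanted tumors. Survival or tumor size was measured, and each value is the treated-group measurement divided by that of the vehicle-treated control group (T/C).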

As for `CCSCCC(N)C(=O)O` (stereo not given), the T/C reads like this: (dose: 13.13 mg/kg/injection, vehicle: carboxymethylcellulose (CMC)) 171 % of control; (dose: 18.0 mg/kg/injection, vehicle: methylcellulose (MC)) 86 % of control; (dose: 20.5 mg/kg/injection, vehicle: carboxymethylcellulose (CMC)) 99 % of control; (dose: 26.25 mg/kg/injection, vehicle: carboxymethylcellulose (CMC)) 118 % of control; (dose: 37.5 mg/kg/injection, vehicle: methylcellulose (MC)) 107 % of control; (dose: 52.5 mg/kg/injection, vehicle: carboxymethylcellulose (CMC)) 121 % of control. Also, the T/C by setting is: (dose: 56.5 mg/kg/injection, vehicle: carboxymethylcellulose (CMC)) 46 % of control; (dose: 82.0 mg/kg/injection, vehicle: carboxymethylcellulose (CMC)) 65 % of control; (dose: 90.4 mg/kg/injection, vehicle: other) 156 % of control; (dose: 105.0 mg/kg/injection, vehicle: carboxymethylcellulose (CMC)) 93 % of control; (dose: 113.0 mg/kg/injection, vehicle: carboxymethylcellulose (CMC)) 38 % of control; (dose: 113.0 mg/kg/injection, vehicle: other) 109 % of control. Also, the T/C is, setting by setting: (dose: 150.66 mg/kg/injection, vehicle: other) 37 % of control; (dose: 226.0 mg/kg/injection, vehicle: carboxymethylcellulose (CMC)) 84 % of control; (dose: 226.0 mg/kg/injection, vehicle: other) 49 % of control.
